Like-named read-outs stand apart in the source and are kept apart here.
Assays:
[1] = cited from earlier work
[2] = cited from earlier work; remark: listed apart in the source
Solubility in DMA or DMI = type: physicochemical; settings: organic solvent or mixture, in presence of pharmaceutically acceptable acid
Protocol: Yet another embodiment of this invention for oral administration to a patient with cancer is 11,7-HECPT or 11,7-HMCPT dissolved in dimethylisosorbide (DMI) or dimethylacetamide (DMA) in the presence of a pharmaceutically acceptable acid. More specifically, approximately 10 mg of 11,7-HECPT or 11,7-HMCPT can be dissolved in each milliliter of DMA. However, only approximately 5.0 mg of 11,7-HECPT or 11,7-HMCPT can be dissolved in each milliliter of DMI.

[3] = more toxic than sodium camptothecin, mice; cited from earlier work
[4] = system: Topoisomerase I, purified from human colon carcinoma cells; settings: cited from earlier work
[5] = system: Topoisomerase I, purified from calf thymus; settings: cited from earlier work
topoisomerase I = settings: cited from earlier work
L1210 cells = settings: cited from earlier work
[6] = cited from earlier work; remark: listed apart in the source
[7] = above 30 mg/m^2/d CPT-11, 5 day continuous infusion; cited from earlier work
[8] = system: topoisomerase I enzyme of P388 cells; settings: greater than CPT-11; cited from earlier work
MOLT3 cells = settings: more potent than CPT-11; cited from earlier work
P388 tumor = settings: intermittent bolus (days 1, 5, and 9), intraperitoneal; mice; cited from earlier work
[9] = Kaneda et al.; cited from earlier work
[10] = in vivo; cited from earlier work
[11] = similar form; vs intravenous administration (U.S. Pat. No. 4,713,246); cited from earlier work
[12] = compared with parent compound camptothecin; cited from earlier work
[13] = dimethylacetamide, read-out: solubility in DMA
[14] = dimethylisosorbide, read-out: solubility in DMI

CC[C@@]1(O)C(=O)OCc2c1cc1n(c2=O)Cc2cc3cc4c(cc3nc2-1)OCO4 [10,11-methylene dioxycamptothecin]
activity in preclinical studies ([1]; preclinical studies): very active in preclinical studies
water solubility [2]: relatively insoluble in water

CCc1c2c(nc3cc(O)ccc13)-c1cc3c(c(=O)n1C2)COC(=O)[C@]3(O)CC [11,7-HECPT, 11-hydroxy-7-ethyl camptothecin]
solubility (Solubility in DMA or DMI; [13]): ~10000 µg/mL
solubility (Solubility in DMA or DMI; [14]): ~5000 µg/mL
antitumor activity ([1]; previously demonstrated): previously demonstrated antitumor activity

CC[C@@]1(O)C(=O)OCc2c1cc1n(c2=O)Cc2c-1nc1cc(O)ccc1c2OC [11,7-HMCPT, 11-hydroxy-7-methoxy camptothecin]
solubility (Solubility in DMA or DMI; [13]): ~10000 µg/mL
solubility (Solubility in DMA or DMI; [14]): ~5000 µg/mL
antitumor activity ([1]; previously demonstrated): previously demonstrated antitumor activity
water solubility [2]: poor water solubility

CC[C@@]1(O)C(=O)OCc2c1cc1n(c2=O)Cc2cc3ccc(O)cc3nc2-1 [11-HCPT, 11-hydroxy camptothecin]
antitumor activity ([1]; previously demonstrated): previously demonstrated antitumor activity

CC[C@@]1(O)C(=O)OCc2c1cc1n(c2=O)Cc2cc3ccccc3nc2-1 [Camptothecin, camptothecin]
toxicity of lactone form relative to sodium camptothecin [3]: 10 -fold
inhibition of Topoisomerase I [4]: inhibited
inhibition of Topoisomerase I [5]: inhibited
stabilization of the cleavable complex (topoisomerase I; closed lactone vs non-lactone form): only the closed lactone form of camptothecin helps stabilize the cleavable complex
DNA strand breaks in L1210 cells (L1210 cells): an increase in unexplained protein-free breaks
water solubility [2]: highly water insoluble
Toxicity ([6]; camptothecin, Phase I trials, early 1970's): unpredictable myelosuppression and hemorrhagic cystitis
antitumor activity ([6]; camptothecin, Phase I trials): some antitumor activity

CCc1c2c(nc3ccc(O)cc13)-c1cc3c(c(=O)n1C2)COC(=O)[C@]3(O)CC [SN38, 10-hydroxy-7-ethyl camptothecin]
CpMax of SN38 on increasing CPT-11 dose [7]: decrease in the CpMax of SN38
inhibitory activity against topoisomerase I relative to CPT-11 [8]: 3600 -fold
potency in generating single-strand DNA breaks relative to CPT-11 (MOLT3 cells): approximately 1000 -fold
anti-tumor activity compared to CPT-11 in vivo (P388 tumor): little anti-tumor activity compared to CPT-11
inhibition of Topoisomerase I [4]: inhibited
inhibition of Topoisomerase I [5]: inhibited
plasma concentration of SN38 in mice [9]: maintained longer after CPT-11 administration than after treatment with SN38
overall fractional concentration of the lactone species [10]: fairly constant through a range of doses
water solubility [2]: poorly soluble in water

COc1cc([C@@H]2c3cc4c(cc3[C@@H](O[C@@H]3O[C@@H]5CO[C@@H](C)O[C@H]5[C@H](O)[C@H]3O)[C@H]3COC(=O)[C@H]23)OCO4)cc(OC)c1O [etoposide]
bioavailability following oral administration [11]: substantially equivalent to that achieved by intravenous administration

CC[C@@](O)(C(=O)O)c1cc2n(c(=O)c1CO)Cc1cc3ccccc3nc1-2 [sodium camptothecin]
Toxicity ([6]; sodium camptothecin, Phase II studies): unpredictable and severe myelosuppression, gastrointestinal toxicity, hemorrhagic cystitis, and alopecia
antitumor activity ([6]; sodium camptothecin, clinical trials): lack of significant anti-tumor activity

CC[C@@]1(O)C(=O)OCc2c1cc1n(c2=O)Cc2cc3c(CN(C)C)c(O)ccc3nc2-1 [topotecan]
Topo I inhibition (topoisomerase I): Topo I inhibitor
antitumor activity ([1]; compared with parent compound camptothecin): retain the significant antitumor activity of the parent compound
Toxicity [12]: less sporadic toxicities

— patent US5468754A, “11,7 substituted camptothecin derivatives and formulations of 11,7 substituted camptothecin derivatives and methods for uses thereof” (priority 1994, dated 1995)
